Laboratory results reported in PubChem BioAssay (NCI).
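Dose response: 5 concentrations. Exposure: 48 h. Format: 96-well plates. Endpoint: linear interpolation; highest concentration if not reached. At the TGI there is no net growth.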

Experiments:
Test in all cases: growth of human tumour cells (NCI), 48 h
HOP-62 NSCLC = system: HOP-62 NSCLC
K-562 leukemia = system: K-562 leukemia
LXFL 529 NSCLC = system: LXFL 529 NSCLC
RXF 393 renal = system: RXF 393 renal
LOX IMVI melanoma = system: LOX IMVI melanoma
CAKI-1 renal = system: CAKI-1 renal
M19-MEL melanoma = system: M19-MEL melanoma
IGROV1 ovarian = system: IGROV1 ovarian
XF 498 CNS = system: XF 498 CNS
MOLT-4 leukemia = system: MOLT-4 leukemia
HOP-18 NSCLC = system: HOP-18 NSCLC
OVCAR-4 ovarian = system: OVCAR-4 ovarian
KM12 colon = system: KM12 colon
SNB-78 CNS = system: SNB-78 CNS
A549 NSCLC = system: A549 NSCLC
SW-620 colon = system: SW-620 colon
SF-539 CNS = system: SF-539 CNS
HCT-15 colon = system: HCT-15 colon
TK-10 renal = system: TK-10 renal
ACHN renal = system: ACHN renal
SN12C renal = system: SN12C renal
DMS 273 small cell lung = system: DMS 273 small cell lung
786-0 renal = system: 786-0 renal
SNB-75 CNS = system: SNB-75 CNS
SK-MEL-2 melanoma = system: SK-MEL-2 melanoma
HOP-92 NSCLC = system: HOP-92 NSCLC
COLO 205 colon = system: COLO 205 colon
OVCAR-3 ovarian = system: OVCAR-3 ovarian
OVCAR-8 ovarian = system: OVCAR-8 ovarian
UACC-62 melanoma = system: UACC-62 melanoma
M14 melanoma = system: M14 melanoma
A498 renal = system: A498 renal
SF-268 CNS = system: SF-268 CNS
U251 CNS = system: U251 CNS
UACC-257 melanoma = system: UACC-257 melanoma
SK-MEL-5 melanoma = system: SK-MEL-5 melanoma
MALME-3M melanoma = system: MALME-3M melanoma
EKVX NSCLC = system: EKVX NSCLC
NCI-H522 lung = system: NCI-H522 lung
RPMI-8226 leukemia = system: RPMI-8226 leukemia
SNB-19 CNS = system: SNB-19 CNS
HCT-116 colon = system: HCT-116 colon
SK-OV-3 ovarian = system: SK-OV-3 ovarian
SF-295 CNS = system: SF-295 CNS
CCRF-CEM leukemia = system: CCRF-CEM leukemia
DLD-1 colon = system: DLD-1 colon
UO-31 renal = system: UO-31 renal
HL-60(TB) leukemia = system: HL-60(TB) leukemia
SR leukemia = system: SR leukemia
SK-MEL-28 melanoma = system: SK-MEL-28 melanoma
DMS 114 small cell lung = system: DMS 114 small cell lung
NCI-H23 lung = system: NCI-H23 lung
NCI-H460 lung = system: NCI-H460 lung
HT29 colon = system: HT29 colon
OVCAR-5 ovarian = system: OVCAR-5 ovarian
HCC-2998 colon = system: HCC-2998 colon
KM20L2 colon = system: KM20L2 colon
NCI-H226 lung = system: NCI-H226 lung

## O=C1NC2=C(CCCCC/C2=N\O)C12CCCCCC2
HOP-62 NSCLC
  TGI: > 100 µM
K-562 leukemia
  TGI: > 100 µM
LXFL 529 NSCLC
  TGI: > 100 µM
RXF 393 renal
  TGI: > 100 µM
LOX IMVI melanoma
  TGI: > 100 µM
CAKI-1 renal
  TGI: > 100 µM
M19-MEL melanoma
  TGI: > 100 µM
IGROV1 ovarian
  TGI: > 100 µM
XF 498 CNS
  TGI: > 100 µM
MOLT-4 leukemia
  TGI: > 100 µM
HOP-18 NSCLC
  TGI: > 100 µM
OVCAR-4 ovarian
  TGI: > 100 µM
KM12 colon
  TGI: > 100 µM
SNB-78 CNS
  TGI: > 100 µM
A549 NSCLC
  TGI: > 100 µM
SW-620 colon
  TGI: > 100 µM
SF-539 CNS
  TGI: > 100 µM
HCT-15 colon
  TGI: > 100 µM
TK-10 renal
  TGI: > 100 µM
ACHN renal
  TGI: > 100 µM
SN12C renal
  TGI: > 100 µM
DMS 273 small cell lung
  TGI: > 100 µM
786-0 renal
  TGI: > 100 µM
SNB-75 CNS
  TGI: > 100 µM
SK-MEL-2 melanoma
  TGI: > 100 µM
HOP-92 NSCLC
  TGI: > 100 µM
COLO 205 colon
  TGI: > 100 µM
OVCAR-3 ovarian
  TGI: > 100 µM
OVCAR-8 ovarian
  TGI: > 100 µM
UACC-62 melanoma
  TGI: > 100 µM
M14 melanoma
  TGI: > 100 µM
A498 renal
  TGI: > 100 µM
SF-268 CNS
  TGI: > 100 µM
U251 CNS
  TGI: > 100 µM
UACC-257 melanoma
  TGI: > 100 µM
SK-MEL-5 melanoma
  TGI: > 100 µM
MALME-3M melanoma
  TGI: > 100 µM
EKVX NSCLC
  TGI: > 100 µM
NCI-H522 lung
  TGI: > 100 µM
RPMI-8226 leukemia
  TGI: > 100 µM
SNB-19 CNS
  TGI: > 100 µM
HCT-116 colon
  TGI: > 100 µM
SK-OV-3 ovarian
  TGI: > 100 µM
SF-295 CNS
  TGI: > 100 µM
CCRF-CEM leukemia
  TGI: > 100 µM
DLD-1 colon
  TGI: > 100 µM
UO-31 renal
  TGI: > 100 µM
HL-60(TB) leukemia
  TGI: > 100 µM
SR leukemia
  TGI: > 100 µM
SK-MEL-28 melanoma
  TGI: > 100 µM
DMS 114 small cell lung
  TGI: > 100 µM
NCI-H23 lung
  TGI: > 100 µM
NCI-H460 lung
  TGI: > 100 µM
HT29 colon
  TGI: > 100 µM
OVCAR-5 ovarian
  TGI: > 100 µM

## Cc1ccc(S(=O)(=O)OCC/C(=C\[Si](C)(C)C)c2ccccc2)cc1
HOP-62 NSCLC
  TGI: > 100 µM
K-562 leukemia
  TGI: > 100 µM
LXFL 529 NSCLC
  TGI: > 100 µM
RXF 393 renal
  TGI: > 100 µM
LOX IMVI melanoma
  TGI: > 100 µM
CAKI-1 renal
  TGI: > 100 µM
M19-MEL melanoma
  TGI: > 100 µM
IGROV1 ovarian
  TGI: > 100 µM
XF 498 CNS
  TGI: > 100 µM
MOLT-4 leukemia
  TGI: > 100 µM
HOP-18 NSCLC
  TGI: > 100 µM
OVCAR-4 ovarian
  TGI: > 100 µM
KM12 colon
  TGI: > 100 µM
A549 NSCLC
  TGI: > 100 µM
SW-620 colon
  TGI: > 100 µM
SF-539 CNS
  TGI: > 100 µM
HCT-15 colon
  TGI: > 100 µM
TK-10 renal
  TGI: > 100 µM
ACHN renal
  TGI: > 100 µM
SN12C renal
  TGI: > 100 µM
DMS 273 small cell lung
  TGI: > 100 µM
786-0 renal
  TGI: > 100 µM
SNB-75 CNS
  TGI: > 100 µM
SK-MEL-2 melanoma
  TGI: > 100 µM
HOP-92 NSCLC
  TGI: > 100 µM
COLO 205 colon
  TGI: > 100 µM
HCC-2998 colon
  TGI: > 100 µM
OVCAR-3 ovarian
  TGI: > 100 µM
OVCAR-8 ovarian
  TGI: > 100 µM
UACC-62 melanoma
  TGI: > 100 µM
M14 melanoma
  TGI: > 100 µM
A498 renal
  TGI: > 100 µM
SF-268 CNS
  TGI: > 100 µM
U251 CNS
  TGI: > 100 µM
UACC-257 melanoma
  TGI: > 100 µM
SK-MEL-5 melanoma
  TGI: > 100 µM
MALME-3M melanoma
  TGI: > 100 µM
KM20L2 colon
  TGI: > 100 µM
EKVX NSCLC
  TGI: > 100 µM
NCI-H522 lung
  TGI: > 100 µM
RPMI-8226 leukemia
  TGI: > 100 µM
NCI-H226 lung
  TGI: > 100 µM
SNB-19 CNS
  TGI: > 100 µM
HCT-116 colon
  TGI: > 100 µM
SK-OV-3 ovarian
  TGI: > 100 µM
SF-295 CNS
  TGI: > 100 µM
CCRF-CEM leukemia
  TGI: > 100 µM
DLD-1 colon
  TGI: > 100 µM
UO-31 renal
  TGI: > 100 µM
HL-60(TB) leukemia
  TGI: > 100 µM
SR leukemia
  TGI: > 100 µM
SK-MEL-28 melanoma
  TGI: > 100 µM
DMS 114 small cell lung
  TGI: > 100 µM
NCI-H23 lung
  TGI: > 100 µM
NCI-H460 lung
  TGI: > 100 µM
HT29 colon
  TGI: > 100 µM
OVCAR-5 ovarian
  TGI: > 100 µM

## O=C(NC12CC3CCC1CC(C3)C2)[C@@H]1CCCN1C(=O)OCc1ccccc1 (stereo partly specified)
HOP-62 NSCLC
  TGI: > 100 µM
K-562 leukemia
  TGI: > 100 µM
LXFL 529 NSCLC
  TGI: > 100 µM
RXF 393 renal
  TGI: 54.6 µM
LOX IMVI melanoma
  TGI: > 100 µM
M19-MEL melanoma
  TGI: > 100 µM
IGROV1 ovarian
  TGI: > 100 µM
XF 498 CNS
  TGI: > 100 µM
MOLT-4 leukemia
  TGI: > 100 µM
HOP-18 NSCLC
  TGI: > 100 µM
KM12 colon
  TGI: > 100 µM
SNB-78 CNS
  TGI: > 100 µM
A549 NSCLC
  TGI: > 100 µM
SW-620 colon
  TGI: > 100 µM
SF-539 CNS
  TGI: > 100 µM
HCT-15 colon
  TGI: > 100 µM
TK-10 renal
  TGI: > 100 µM
ACHN renal
  TGI: > 100 µM
SN12C renal
  TGI: > 100 µM
DMS 273 small cell lung
  TGI: > 100 µM
786-0 renal
  TGI: > 100 µM
SNB-75 CNS
  TGI: 97.2 µM
SK-MEL-2 melanoma
  TGI: > 100 µM
HOP-92 NSCLC
  TGI: 71.5 µM
COLO 205 colon
  TGI: > 100 µM
HCC-2998 colon
  TGI: > 100 µM
OVCAR-3 ovarian
  TGI: > 100 µM
OVCAR-8 ovarian
  TGI: > 100 µM
UACC-62 melanoma
  TGI: > 100 µM
M14 melanoma
  TGI: > 100 µM
A498 renal
  TGI: > 100 µM
SF-268 CNS
  TGI: > 100 µM
U251 CNS
  TGI: > 100 µM
UACC-257 melanoma
  TGI: > 100 µM
MALME-3M melanoma
  TGI: > 100 µM
KM20L2 colon
  TGI: > 100 µM
EKVX NSCLC
  TGI: > 100 µM
NCI-H522 lung
  TGI: > 100 µM
RPMI-8226 leukemia
  TGI: > 100 µM
NCI-H226 lung
  TGI: > 100 µM
SNB-19 CNS
  TGI: > 100 µM
HCT-116 colon
  TGI: > 100 µM
SK-OV-3 ovarian
  TGI: > 100 µM
SF-295 CNS
  TGI: > 100 µM
CCRF-CEM leukemia
  TGI: > 100 µM
DLD-1 colon
  TGI: > 100 µM
UO-31 renal
  TGI: > 100 µM
HL-60(TB) leukemia
  TGI: 73.3 µM
SR leukemia
  TGI: > 100 µM
SK-MEL-28 melanoma
  TGI: > 100 µM
DMS 114 small cell lung
  TGI: > 100 µM
NCI-H23 lung
  TGI: > 100 µM
HT29 colon
  TGI: > 100 µM
OVCAR-5 ovarian
  TGI: > 100 µM
